Measured values: paper PMC6051542 (MedChemComm, 2017)
≈ marks a conversion by molar mass, not a printed value. Like-named read-outs stand apart in the source and are kept apart here.

Columns and labels:
[1] = tested on: E. coli BW25113; conditions: wild-type E. coli BW25113; cited from earlier work
[2] = tested on: E. coli JW5503; conditions: cited from earlier work
[3] = tested on: gram-positive strains; experiment: MIC against all 9 gram-positive strains tested; type: cell-based; conditions: read-out: MIC values against all 9 gram-positive strains tested
[4] = tested on: E. coli, Edwardsiella tarda, S. enterica enterica Typhimurium, and S. flexneri; experiment: MIC against susceptible gram-negative strains; type: cell-based; conditions: read-out: MICs against susceptible gram-negative strains
[5] = tested on: E. coli JW5503 harboring pCA24N-gyrB; type: cell-based
[6] = target: DNA gyrase ATPase activity (Escherichia coli, UniProt P0AES4+P0AES6); experiment: ATPase activity of DNA gyrase; type: biochemical, E. coli; conditions: up to a concentration of 100 μM
Chain of DNA gyrase ATPase activity (P0AES4 whole entry, one chain of several): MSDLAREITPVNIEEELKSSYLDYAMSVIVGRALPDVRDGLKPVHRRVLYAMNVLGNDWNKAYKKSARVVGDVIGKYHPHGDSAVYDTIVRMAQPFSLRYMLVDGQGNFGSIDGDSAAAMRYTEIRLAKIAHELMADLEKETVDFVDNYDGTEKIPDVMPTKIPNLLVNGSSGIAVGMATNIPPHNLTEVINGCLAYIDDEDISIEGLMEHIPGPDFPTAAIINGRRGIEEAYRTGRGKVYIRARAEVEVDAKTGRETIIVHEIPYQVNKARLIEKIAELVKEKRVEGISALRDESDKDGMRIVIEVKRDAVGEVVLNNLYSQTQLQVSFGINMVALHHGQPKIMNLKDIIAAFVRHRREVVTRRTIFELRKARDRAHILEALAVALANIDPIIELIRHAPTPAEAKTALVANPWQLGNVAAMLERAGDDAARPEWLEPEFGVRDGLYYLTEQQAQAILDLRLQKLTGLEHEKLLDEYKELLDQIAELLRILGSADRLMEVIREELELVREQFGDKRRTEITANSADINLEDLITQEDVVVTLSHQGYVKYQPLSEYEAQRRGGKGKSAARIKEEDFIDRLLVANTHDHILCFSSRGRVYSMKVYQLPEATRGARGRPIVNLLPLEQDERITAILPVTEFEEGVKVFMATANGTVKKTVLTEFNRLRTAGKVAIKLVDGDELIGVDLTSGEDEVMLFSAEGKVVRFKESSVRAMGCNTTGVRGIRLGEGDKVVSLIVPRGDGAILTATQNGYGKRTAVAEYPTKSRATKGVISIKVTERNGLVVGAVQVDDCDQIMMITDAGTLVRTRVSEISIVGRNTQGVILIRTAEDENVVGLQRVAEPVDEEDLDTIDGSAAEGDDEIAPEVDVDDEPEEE

[7] = tested on: E. coli cells, overexpression (gyrA/gyrB) (+/+); experiment: microbe, parasite or virus in culture; type: cell-based; conditions: Escherichia coli, induction + (IPTG)
[8] = tested on: gyrR strains derived from E. coli JW5503; experiment: MIC against the five gyrR strains derived from E. coli JW5503; type: cell-based; conditions: Escherichia coli, read-out: MIC against gyrR strains
[9] = tested on: E. coli cells; conditions: cited from earlier work

For Cc1ccc(F)cc1S(=O)(=O)N[C@@H]1CCN(Cc2ccc(-c3ccccc3)cc2)C1 [Compound 8, gyramide C], the MIC [1] is given as over 160 µg/mL and the MIC [2] is given as 0.1 µg/mL (≈ 0.236 µM).
In the case of Cc1ccc(C(F)(F)F)cc1S(=O)(=O)N[C@@H]1CCN(Cc2ccc(OC3CC3)cc2)C1 [Compound 4, (R)-N-(1-(4-cyclopropoxybenzyl)pyrrolidin-3-yl)-2-methyl-5-(trifluoromethyl)benzenesulfonamide], the MIC [3] is reported as 4 to 16 µg/mL (≈ 8.8 to 35.2 µM) and the MIC [4] is reported as 2 to 16 µg/mL (≈ 4.4 to 35.2 µM).
With CO[C@@H]1[C@@H](OC(N)=O)[C@@H](O)[C@H](Oc2ccc3c(O)c(NC(=O)c4ccc(O)c(CC=C(C)C)c4)c(=O)oc3c2C)OC1(C)C [Compound 2, Novobiocin] the “highest concentration at which cultures grew” value [5] was 51 µg/mL.
In the case of O=C(O)c1cn(C2CC2)c2cc(N3CCNCC3)c(F)cc2c1=O [Compound 1, Ciprofloxacin], the “inhibition of ATPase activity” value [6] is reported as “did not observe a decrease in ATPase activity”, the MIC [7] is reported as 0.002 µg/mL and the MIC [8] is reported as 1.6 to 3.2 µg/mL (≈ 4.83 to 9.66 µM). For the same compound, the MIC ([9]; E. coli cells before overexpression of DNA gyrase) was 0.009 µg/mL (≈ 0.0272 µM) and the MIC ([9]; E. coli cells with overexpression of DNA gyrase) was 0.002 µg/mL (≈ 0.00604 µM).
Cc1ccc(C#N)cc1S(=O)(=O)N[C@@H]1CCN(Cc2ccc(-c3ccccc3)cc2)C1 [Compound 5, (R)-N-(1-([1,1′-biphenyl]-4-ylmethyl)pyrrolidin-3-yl)-5-cyano-2-methylbenzenesulfonamide] showed an MIC [4] of 2 to 16 µg/mL (≈ 4.63 to 37.1 µM).
For N#Cc1cccc(S(=O)(=O)N[C@@H]2CCN(Cc3ccc(-c4ccccc4)cc3)C2)c1 [Compound 3, (R)-N-(1-([1,1′-biphenyl]-4-ylmethyl)pyrrolidin-3-yl)-3-cyanobenzenesulfonamide], the “inhibition of ATPase activity” value [6] was “did not inhibit the ATPase activity” and the MIC [4] was 2 to 16 µg/mL (≈ 4.79 to 38.3 µM).
